“Also recorded” adds a separate entry of the source. Read-outs that look alike come from different tables or passages of the source.
Key:
Dh44+ cells [1] = test: Ca2+ imaging (GCaMP3.0) of Dh44+ cell activity in response to sugars, ex vivo fly brains; type: cell-based, Drosophila melanogaster; settings: for activation of Dh44+ cells: perfusion of sugar, brains of PDh44 GAL4>UAS-GCaMP3.0 flies, D-glucose 5, 20, 80 mM; for peak amplitude, oscillation number and frequency of Dh44+ cells activation: non-metabolized sugar treatment
Dh44+ cells [2] = test: Ex vivo destaining experiment: Dh44 peptide release quantified by αDh44 immunofluorescence; type: cell-based, Drosophila melanogaster; settings: for release of the Dh44 peptide (amount of Dh44 peptide left inside Dh44+ cells): brains of 18 h-food deprived flies incubated in AHL + sugar 80 mM for 30′, compared with saline (AHL)
[3] = test system: CRH neurons in paraventricular nucleus (PVN); test: Whole-cell patch-clamp recordings of glucose sensing response in brain slices; type: cell-based, mice; parameters: Input R: unit not given here
Description: Whole-cell patch-clamp recordings from CRH neurons in paraventricular nucleus (PVN) slice preparation and data analysis were performed as previously described (ref).
Briefly, 3 to 5 week old of either male or female mice were anesthetized with isoflurane and transcardially perfused with a modified ice-cold artificial CSF (ACSF) in which NaCl was substituted with an equal molar concentration of sucrose (described below). Then, the mice was decapitated, and the entire brain was removed and then immediately immersed in ice-cold ACSF (220 mM sucrose, 2.5 mM KCl, 5.0 mM MgCl2, 1.0 mM CaCl2, 1.0 mM NaH2PO4, 26 mM NaHCO3, and 10 mM glucose), saturated with 95% O2 and 5% CO2. A brain block containing PVN was mounted on a stage and coronal sections (250 um) were cut with a Leica Vibratome. The sectioned slices were then incubated in oxygenated ACSF at 34° C. for at least 1 hour before recording. The slices were transferred into recording chamber and bathed in oxygenated ACSF. The solution flowing the recording chamber was consists of: (126 mM NaCl, 26 mM NaHCO3, 2.8 mM KCl, 2.5 mM CaCl2, 1.25 mM NaH2PO4, 1.2 mM MgSO4, and 5 mM or 2.5 mM glucose). The pipette solution for whole-cell recording was modified to include an intracellular dye (Alexa Fluor 488): 120 mM K-gluconate, 10 mM KCl, 10 mM HEPES, 5 mM EGTA, 1 mM CaCl2, 1 mM MgCl2, and 2 mM MgATP, 0.03 mM Alexa Fluor 488 dye, pH 7.3. Electrophysiological signals were recorded using an […] amplifier (Molecular Devices), low-pass filtered at 2-5 kHz, and analyzed offline on a PC with pCLAMP programs (Molecular Devices). Recording electrodes had resistances of 4.0-6.0 MΩ when filled with K-gluconate pipette solution.
As the cells to be targeted illuminate red fluorescence from td-tomato, the pipette with positive pressure was attached to cell membrane, which was subsequently giga-sealed by brief negative pressure, before making a tiny hole with more negative pressure to perform whole-cell recordings. Only cells with a whole-cell resistance below 15 MΩ and with a stable resting membrane potential within 1 min were selected and carried out recording. […] At the end of a stable trace, its input resistance was assessed by measuring the voltage deflection to hyperpolarizing rectangular current pulse steps (500 ms of −10 to −50 pA). […] Depending on the cells, it took 1-5 min to change the membrane potential and firing rate. After stabilizing the change in electrophysiological response, input resistance was assessed in the same way as previously described. […] (For most CRH neurons as GE neurons, it took more than 10 min to recover after the response.)

[4] = Table 2, glucose back to 2.5 mM

OC[C@H]1O[C@H](O[C@H]2O[C@H](CO)[C@@H](O)[C@H](O)[C@H]2O)[C@H](O)[C@@H](O)[C@@H]1O [trehalose]
activation of Dh44+ cells (Dh44+ cells [1]): robust and persistent activation; also recorded: robustly activated

NC1=N[C@H](O)[C@H]2[C@H]3O[C@]4(O)O[C@@H]([C@@H](O)[C@@]2(N1)[C@@H]4O)[C@]3(O)CO [TTX, Tetrodotoxin]
effect on D-glucose-mediated activity (Ca++ influx) of Dh44+ cells (Dh44+ cells [1]): small but non-significant effect; also recorded: small but nonsignificant effect | effect on D-glucose-induced Dh44 neuropeptide release (Dh44+ cells [2]): did not affect

O=C[C@@H](O)[C@H](O)[C@@H](O)[C@@H](O)CO [L-glucose]
peak amplitude, oscillation number and frequency of Dh44+ cells activation (Dh44+ cells [1]): greatly reduced or nearly abolished | activation of Dh44+ cells (Dh44+ cells [1]): small increase in activity that lacked oscillations | release of the Dh44 peptide (amount of Dh44 peptide left inside Dh44+ cells) (Dh44+ cells [2]): did not result in the release; also recorded: did not induce

O=CC[C@@H](O)[C@H](O)[C@H](O)CO [2DG, 2-deoxy-D-glucose]
peak amplitude, oscillation number and frequency of Dh44+ cells activation (Dh44+ cells [1]): greatly reduced or nearly abolished | activation of Dh44+ cells (Dh44+ cells [1]): small increase in activity that lacked oscillations | release of the Dh44 peptide (amount of Dh44 peptide left inside Dh44+ cells) (Dh44+ cells [2]): did not result in the release | release of the Dh44 peptide (amount of Dh44 peptide left inside Dh44+ cells) (Dh44+ cells [2]; listed as D-2′-deoxy-glucose): did not induce

O=C[C@H](O)[C@@H](O)[C@H](O)[C@H](O)CO [D-glucose]
f ([3]; Table 1 (FIGS. 10A-10B), glucose 5 mM, first): 0.64 HZ | Input R ([3]; Table 1, glucose 2.5 mM): 1.25 | RMP ([3]; Table 1, glucose 2.5 mM): −65.8874 mV | f ([3]; Table 1, glucose 2.5 mM): 0.02 HZ | Input R ([3]; Table 1, glucose 5 mM): 1.40 | Rev P ([3]; Table 1, glucose 5 mM to 2.5 mM): −222.95 mV | RMP ([3]; Table 1, glucose 5 mM, first): −49.5691 mV | RMP ([3]; Table 1, glucose back to 5 mM): −57.9124 mV | f ([3]; Table 1, glucose back to 5 mM): 0.65 HZ | Rev P ([3]; Table 2): −169 mV | f ([3]; Table 2 (FIGS. 11A-11B), glucose 2.5 mM, first): 0.64 HZ | Input R ([3]; Table 2, column headed glucose 2.5 mM): 2.66 | Input R ([3]; Table 2, column headed glucose 5 mM): 2.82 | RMP ([3]; Table 2, glucose 2.5 mM, first): −60.5911 mV | RMP ([3]; Table 2, glucose 5 mM): −52.4561 mV | f ([3]; Table 2, glucose 5 mM): 0.02 HZ | RMP [3, 4]: −59.3806 mV | f [3, 4]: 0.65 HZ | time to change the membrane potential and firing rate ([3]; after recording solution changed from 5 mM to 2.5 mM glucose): 1 to 5 min | electrical activity of the CRH neurons ([3]; glucose changed from 2.5 mM to 5 mM): increased | electrical activity of the CRH neurons ([3]; glucose changed from 5 mM to 2.5 mM): decreased | time to recover after the response ([3]; recording solution changed back to 5 mM glucose, most CRH neurons): more than 10 min | activation of Dh44+ cells (Dh44+ cells [1]): robust and persistent activation; also recorded: robustly activated

O=C1NC(=O)C(=O)C(=O)N1 [Alloxan]
oscillations of Dh44+ cells (Dh44+ cells [1]; D-glucose + Alloxan perfusion): almost complete disappearance | peak amplitude of activation of Dh44+ cells (Dh44+ cells [1]; D-glucose + Alloxan perfusion): dramatic decrease | effect on D-glucose-mediated activity (Ca++ influx) of Dh44+ cells (Dh44+ cells [1]; agent added to the D-glucose solution, Alloxan 4 μM): greatly suppressed | effect on D-glucose-induced Dh44 neuropeptide release (Dh44+ cells [2]; agent together with D-glucose, ex vivo): did not result in the release; also recorded: reduction

O=C(CO)[C@@H](O)[C@H](O)[C@H](O)CO [D-fructose]
activation of Dh44+ cells (Dh44+ cells [1]): robustly activated | activation of Dh44+ cells (Dh44+ cells [1]; listed as fructose): robust and persistent activation

— patent US20150231276A1, “ROLE OF DH44 AND HOMOLOGS IN CALORIE SENSING” (New York University, priority 2014, published 2015)
